Results published in patent publication US11046709B2, “Fused 1,4-diazepines as BET bromodomain inhibitors” (THE REGENTS OF THE UNIVERSITY OF MICHIGAN, priority 2017, dated 2021).

Experiments:
[1] = molecular target: T1, recombinant BRD4 BD2 (Homo sapiens, UniProt O60885); test: Competitive fluorescence-polarization (FP) binding assay, BRD4 BD2; conditions: competitive FP, Table 6; read-out: IC50 as determinined in FP assays BRD4 BD2
T1 construct: for recombinant BRD4 BD1 and BRD4 BD2 proteins

[2] = tested on: MOLM-13; test: Cell growth inhibition, 4-day proliferation assay, MOLM-13; type: cell-based; conditions: Homo sapiens, MOLM-13, WST-8 assay, Table 7; read-out: Cell growth inhibition (IC50 (nM)) MOLM-13
[3] = molecular target: T2, recombinant BRD4 BD1 (Homo sapiens, UniProt O60885); test: Competitive fluorescence-polarization (FP) binding assay, BRD4 BD1; conditions: competitive FP, Table 6; read-out: IC50 as determinined in FP assays BRD4 BD1
T2 construct: for recombinant BRD4 BD1 and BRD4 BD2 proteins
Procedure: Fluorescence Polarization (FP) competitive binding studies were carried out using a FAM labeled fluorescent probe, see, e.g., Cpd. No. 350 of US 2014/0256706, to determine binding affinities of representative Compounds of the Disclosure for recombinant BRD4 BD1 and BRD4 BD2 proteins. Equilibrium dissociation constants (Kd) values of the fluorescent probe to BRD4 BD1 and BD2 proteins were determined from protein saturation experiments by monitoring the total fluorescence polarization of mixtures composed with the fluorescent probe at a fixed concentration and proteins with increasing concentrations up to full saturation. Serial dilutions of testing proteins were mixed with the fluorescent probe to a final volume of 200 μl in the assay buffer (100 mM phosphate buffer, pH=6.5, 0.01% Triton X-100 (Sigma, 282103) being added right before assays). Final fluorescent probe concentration was 1.5 nM for both proteins. Plates were incubated at room temperature for 30 minutes with gentle shaking to assure equilibrium. FP values in millipolarization units (mP) were measured using the Infinite M-1000 plate reader (Tecan U.S., Research Triangle Park, N.C.) in Microfluor 1 96-well, black, round-bottom plates (Thermo Scientific, Waltham, Mass.) at an excitation wavelength of 485 nm and an emission wavelength of 530 nm. Kd values of the fluorescent probe, which were calculated by fitting the sigmoidal dose-dependent FP increases as a function of protein concentrations using Graphpad Prism 6.0 software (Graphpad Software, San Diego, Calif.), are 5.5 and 3.0 nM to BDR4 BD1 and 2, respectively.
The IC50 and Ki values of compounds were determined in a competitive binding experiment. See US 2014/0256706. Mixtures of 10 μl of the tested compounds in assay buffer with 40% Ethylene Glycol and 190 μl of preincubated protein/probe complex solution in the assay buffer (100 mM potassium phosphate, pH 6.5, 0.01% Triton X-100) were added into assay plates which were incubated at room temperature for 30 minutes with gentle shaking. Final concentrations of proteins were 10 and 6 nM in assays for BRD4 BD1 and BD2, respectively. Final probe concentration is 1.5 nM in both assays. Negative controls containing protein/probe complex only (equivalent to 0% inhibition), and positive controls containing only free probes (equivalent to 100% inhibition), were included in each assay plate. FP values were measured as described above. IC50 values were determined by nonlinear regression fitting of the competition curves. Instead of being calculated from IC50 values as described before. Ki values of competitive inhibitors were obtained directly by nonlinear regression fitting as well, based upon the Kd values of the probe to different proteins, and concentrations of the proteins and probes in the competitive assays (US 2014/0256706; Wang, FEBS Lett. 360:111 (1995); Zhang et al., Analytical Biochemistry, 331:138 (2004)).
Representative compounds in Table 5 were evaluated for their binding affinities to BRD4 BD1 and BD2 proteins using the Competitive Fluorescence-Polarization (FP) Assays described in Example 6, with the data included in Table 6.

[4] = tested on: MDA-MB-231; test: Cell growth inhibition, 4-day proliferation assay, MDA-MB-231; type: cell-based; conditions: Homo sapiens, MDA-MB-231; WST-8 assay, Table 7; read-out: Cell growth inhibition (IC50 (nM)) MDA-MB-231
Summary of the method: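 Cells seeded at 3,000-10,000/well, treated with serially diluted compounds 4 days at 37 °C, 5% CO2. Viability by WST-8 (10% v/v, 1-2 h, A450); readings normalized to DMSO-treated cells, IC50 by four-parameter nonlinear regression.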

| SMILES | IC50 [1] [nM] | IC50 [2] [nM] | IC50 [3] [nM] | IC50 [4] [nM] |
| --- | --- | --- | --- | --- |
| CCNC(=O)C[C@@H]1N=C(c2ccc(Cl)cc2)c2c(sc(C#Cc3cccnc3)c2C)-n2c(C)nnc21 [Compound 114, (S)-2-(4-(4-chlorophenyl)-3,9-dimethyl-2-(pyridin-3-ylethynyl)-6H-thieno[3,2-f][1,2,4]triazolo[4,3-a][1,4]diazepin-6-yl)-N-ethylacetamide] | 4.7 | 13.8 | 8.2 | 39.4 |
| Cc1nnc(C[C@@H]2N=C(c3ccc(Cl)cc3)c3c(sc(C#Cc4ccccn4)c3C)-n3c(C)nnc32)s1 [Compound 134, (S)-4-(4-chlorophenyl)-3,9-dimethyl-6-((5-methyl-1,3,4-thiadiazol-2-yl)methyl)-2-(pyridin-2-ylethynyl)-6H-thieno[3,2-f][1,2,4]triazolo[4,3-a][1,4]diazepine] | 59.2 | 11.9 | 7.88 | 85.2 |
| Cc1c(C#Cc2cccnc2)sc2c1C(c1ccc(Cl)cc1)=N[C@@H](CC(=O)N1CCN(C)CC1)c1nnc(C)n1-2 [Compound 115, (S)-2-(4-(4-chlorophenyl)-3,9-dimethyl-2-(pyridin-3-ylethynyl)-6H-thieno[3,2-f][1,2,4]triazolo[4,3-a][1,4]diazepin-6-yl)-1-(4-methylpiperazin-1-yl)ethan-1-one] | 6.3 | 21.9 | 9.6 | 65.1 |
| Cc1c(C#Cc2ccccn2)sc2c1C(c1ccc(Cl)cc1)=N[C@@H](Cc1nnc(C3CC3)o1)c1nnc(C)n1-2 [Compound 136, (S)-2-((4-(4-chlorophenyl)-3,9-dimethyl-2-(pyridin-2-ylethynyl)-6H-thieno[3,2-f][1,2,4]triazolo[4,3-a][1,4]diazepin-6-yl)methyl)-5-cyclopropyl-1,3,4-oxadiazole] | 60.1 | 28.1 | 11.3 | 52.1 |
| Cc1c(C#Cc2ccccn2)sc2c1C(c1ccc(Cl)cc1)=N[C@@H](CC(=O)N1CCNCC1)c1nnc(C)n1-2 [Compound 122, (S)-2-(4-(4-chlorophenyl)-3,9-dimethyl-2-(pyridin-2-ylethynyl)-6H-thieno[3,2-f][1,2,4]triazolo[4,3-a][1,4]diazepin-6-yl)-1-(piperazin-1-yl)ethan-1-one] | 34.6 | 15.3 | 14.2 | 19.4 |
| Cc1c(C#Cc2ccccn2)sc2c1C(c1ccc(Cl)cc1)=N[C@@H](CC(=O)NC1CCN(C)CC1)c1nnc(C)n1-2 [Compound 130, (S)-2-(4-(4-chlorophenyl)-3,9-dimethyl-2-(pyridin-2-ylethynyl)-6H-thieno[3,2-f][1,2,4]triazolo[4,3-a][1,4]diazepin-6-yl)-N-(1-methylpiperidin-4-yl)acetamide] | 19 | 3.84 | 8.7 | 13 |
| Cc1c(C#Cc2cccnc2)sc2c1C(c1ccc(Cl)cc1)=N[C@@H](CC(N)=O)c1nnc(C)n1-2 [Compound 113, (S)-2-(4-(4-chlorophenyl)-3,9-dimethyl-2-(pyridin-3-ylethynyl)-6H-thieno[3,2-f][1,2,4]triazolo[4,3-a][1,4]diazepin-6-yl)acetamide] | 11.4 | 2.7 | 4.1 | 23.9 |
| Cc1c(C#Cc2cccnc2)sc2c1C(c1ccc(Cl)cc1)=N[C@@H](CC(=O)N1CCNCC1)c1nnc(C)n1-2 [Compound 116, (S)-2-(4-(4-chlorophenyl)-3,9-dimethyl-2-(pyridin-3-ylethynyl)-6H-thieno[3,2-f][1,2,4]triazolo[4,3-a][1,4]diazepin-6-yl)-1-(piperazin-1-yl)ethan-1-one] | 122 | 17.3 | 10.4 | 45.3 |
| Cc1c(C#Cc2ccccn2)sc2c1C(c1ccc(Cl)cc1)=N[C@@H](CC(C)C)c1nnc(C)n1-2 [Compound 105, (S)-4-(4-chlorophenyl)-6-isobutyl-3,9-dimethyl-2-(pyridin-2-ylethynyl)-6H-thieno[3,2-f][1,2,4]triazolo[4,3-a][1,4]diazepine] | 26.5 | 348 | 33.9 | 400 ± 200 |
